Data as given in ChEMBL document CHEMBL2046289, “Novel 2-(2-(benzylthio)-1H-benzo[d]imidazol-1-yl)acetic acids: discovery and hit-to-lead evolution of a selective CRTh2 receptor antagonist chemotype” (Bioorg Med Chem Lett, 2012).

Biological target: T1, Prostaglandin D2 receptor 2 (Homo sapiens, UniProt Q9Y5Y4)
T1 sequence (Q9Y5Y4 whole entry): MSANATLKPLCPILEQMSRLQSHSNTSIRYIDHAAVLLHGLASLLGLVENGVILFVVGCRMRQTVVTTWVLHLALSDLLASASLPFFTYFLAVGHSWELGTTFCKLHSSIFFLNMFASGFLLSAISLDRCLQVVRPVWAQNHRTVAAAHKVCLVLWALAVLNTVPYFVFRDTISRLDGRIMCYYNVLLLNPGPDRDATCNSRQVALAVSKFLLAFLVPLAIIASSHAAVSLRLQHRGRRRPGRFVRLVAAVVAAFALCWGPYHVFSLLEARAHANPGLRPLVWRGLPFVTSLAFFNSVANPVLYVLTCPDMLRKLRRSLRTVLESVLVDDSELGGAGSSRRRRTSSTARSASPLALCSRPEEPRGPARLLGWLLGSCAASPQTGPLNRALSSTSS
Test: Antagonist activity at human CRTh2 receptor expressed in HEK293 cells assessed as inhibition of PGD2-induced calcium flux by FLIPR assay
Assay type: functional, cell-based

| IC50 | Structure (SMILES) |
| --- | --- |
| 89 nM | COc1ccc(C(C)=O)cc1CSc1nc2ccc(F)cc2n1CC(=O)O |
| 3 nM | COc1ccc(C(C)=O)cc1CSc1nc2cc([N+](=O)[O-])ccc2n1CC(=O)O |
| 15 nM | CCNC(=O)c1ccc(OC)c(CSc2nc3cc(F)ccc3n2CC(=O)O)c1 |
| 6600 nM | O=C(O)Cn1c(SCCOc2ccc(Cl)cc2)nc2ccccc21 |

Biological target: T1, Prostaglandin D2 receptor 2
Test: Displacement of [3H]-PGD2 from human CRTh2 receptor expressed in HEK293 cells
Assay type: cell-based

| Structure (SMILES) | IC50 |
| --- | --- |
| COc1ccc(C(C)=O)cc1CSc1nc2ccc(F)cc2n1CC(=O)O | 45 nM |
| COC(=O)c1cc(CSc2nc3ccccc3n2CC(=O)O)ccc1Br | 980 nM |
| COc1ccc(C)cc1CSc1nc2ccccc2n1CC(=O)O | 1200 nM |
| COc1ccc(C(=O)OC(C)C)cc1CSc1nc2ccccc2n1CC(=O)O | 150 nM |
| COc1ccc(C(C)O)cc1CSc1nc2ccccc2n1CC(=O)O (racemic) | 2200 nM |
| CCOC(=O)CCCCCSc1nc2ccccc2n1CC(=O)O | 1010 nM |
| CCNC(=O)CCCCSc1nc2ccccc2n1CC(=O)O | > 10000 nM |
| COc1ccc(C(C)=O)cc1CSc1nc2cc([N+](=O)[O-])ccc2n1CC(=O)O | 2 nM |
| CCNC(=O)c1ccc(OC)c(CSc2nc3cc(F)ccc3n2CC(=O)O)c1 | 16 nM |
| COc1ccc(Cl)cc1CSc1nc2ccccc2n1CC(=O)O | 740 nM |
| COC(=O)c1cc(Br)cc(CSc2nc3ccccc3n2CC(=O)O)c1 | 330 nM |
| CCOC(=O)CCCCSc1nc2ccccc2n1CC(=O)O | 2360 nM |
| COC(=O)c1cccc(CSc2nc3ccccc3n2CC(=O)O)c1 | 450 nM |
| CCOC(=O)CCCSc1nc2ccccc2n1CC(=O)O | 4410 nM |
| COC(=O)c1ccc(OC)c(CSc2nc3ccccc3n2CC(=O)O)c1 | 29 nM |
| O=C(O)Cn1c(SCc2ccc(Cl)c(Cl)c2)nc2ccccc21 | 380 nM |
| COC(=O)c1ccc(CSc2nc3ccccc3n2CC(=O)O)cc1 | 10600 nM |
| COC(=O)c1ccc(Br)c(CSc2nc3ccccc3n2CC(=O)O)c1 | 45 nM |
| COC(=O)c1cccc(CSc2nc3ccccc3n2CC(=O)O)c1Br | 2900 nM |
| CCOC(=O)CCSc1nc2ccccc2n1CC(=O)O | 11400 nM |
| CC(=O)c1cccc(CSc2nc3ccccc3n2CC(=O)O)c1 | 230 nM |
| COc1ccc(OC)c(CSc2nc3ccccc3n2CC(=O)O)c1 | 1600 nM |
| CCCCCSc1nc2ccccc2n1CC(=O)O | 1240 nM |
| CCCCCCSc1nc2ccccc2n1CC(=O)O | 1360 nM |
| O=C(O)Cn1c(SCc2cc(Cl)ccc2Cl)nc2ccccc21 | 470 nM |

Continued, values first:

| IC50 | Structure (SMILES) |
| --- | --- |
| 810 nM | Cc1ccccc1CSc1nc2ccccc2n1CC(=O)O |
| 7690 nM | O=C(O)Cn1c(SCCNc2ccccc2)nc2ccccc21 |
| 220 nM | Cc1ccc(CSc2nc3ccccc3n2CC(=O)O)cc1 |
| 590 nM | O=C(O)Cn1c(SCCOc2ccccc2)nc2ccccc21 |
| 2690 nM | O=C(O)Cn1c(SCCCNc2ccccc2)nc2ccccc21 |
| 220 nM | O=C(O)Cn1c(SCc2ccc(Br)cc2)nc2ccccc21 |
| 1500 nM | O=C(O)Cn1c(SCCOc2ccc(Cl)cc2)nc2ccccc21 |
| 210 nM | COc1ccc(CSc2nc3ccccc3n2CC(=O)O)cc1 |
| 786 nM | O=C(O)Cn1c(SCCCOc2ccccc2)nc2ccccc21 |
| 2000 nM | O=C(O)Cn1c(SCCOc2cccc3ccccc23)nc2ccccc21 |
| 186 nM | O=C(O)Cn1c(SCc2cccc(Cl)c2)nc2ccccc21 |
| 475 nM | O=C(O)Cn1c(SCCCc2ccccc2)nc2ccccc21 |
| 520 nM | COC(=O)c1ccccc1CSc1nc2ccccc2n1CC(=O)O |
| 160 nM | O=C(O)Cn1c(SCc2ccc(Cl)cc2)nc2ccccc21 |
| 370 nM | O=C(O)Cn1c(SCc2ccccc2Cl)nc2ccccc21 |
| 1100 nM | COc1ccccc1CSc1nc2ccccc2n1CC(=O)O |
| 2370 nM | CCCCSc1nc2ccccc2n1CC(=O)O |
| 2500 nM | O=C(O)Cn1c(SCCOc2ccc3ccccc3c2)nc2ccccc21 |
| 1400 nM | O=C(O)Cn1c(SCCCCOc2ccccc2)nc2ccccc21 |
| 388 nM | O=C(O)Cn1c(SCc2ccccc2)nc2ccccc21 |
| 881 nM | O=C(O)Cn1c(SCCc2ccccc2)nc2ccccc21 |
| 580 nM | O=C(O)Cn1c(SCc2ccccc2Br)nc2ccccc21 |
| 105 nM | Cc1cccc(CSc2nc3ccccc3n2CC(=O)O)c1 |
| 370 nM | O=C(O)Cn1c(SCc2cccc(Br)c2)nc2ccccc21 |
| 72 nM | COc1cccc(CSc2nc3ccccc3n2CC(=O)O)c1 |
